Measured values: US4885361A, “Sulfated oligosaccharides” (Hoffmann-La Roche Inc., priority 1987, dated 1989)

Experiments:
[1] = test system: Factor Xa; assay: anti-Xa Clotting Assay; assay type: biochemical; conditions: concentration which leads to a coagulation time double the control value; citrated plasma, 37° C.
Method: anti-Xa Clotting Assay: 25 μl of citrated plasma having various concentrations of test compound are mixed with 75 μl of Factor Xa (the activated blood coagulation factor X) diluted 1:100 with 0.63% citrated buffer (pH 7.3) which contains 41 mM imidazole, 82 mM NaCl and 0.1% albumin. After warming to 37° C. for 2 minutes 200 μl of a 1:1 mixture of Factor X Deficient Plasma and Platelet Substitute are added and the mixture is incubated at 37° C. for 20 seconds. After the addition of 100 μl of prewarmed 50 mM calcium chloride solution the coagulation time is measured in a Fibrometer.
(§1) The activity of the test compound is given as the IC50 which is the concentration [μg/ml] which leads to a coagulation time which is double the control value.

[2] = test system: bloody lesions of the mucous membrane of the stomach; assay: mucosa-protective properties (ethanol-induced stomach lesions); assay type: in vivo; conditions: 30 mg/kg oral, 30 minutes prior to ethanol, rat, vs control group
Method: The test procedure described hereinafter can be used to determine the mucosa-protective properties:
Oral administration of absolute ethanol to male rats in a dosage of 1 ml per rat leads within 1 hour to bloody lesions of the mucous membrane of the stomach. Various dosages of the substances to be tested (suspended in 0.125% carboxymethylcellulose) or the vehicle alone (control) are administered orally to the rats (1 ml per rat) 30 minutes prior to the treatment with ethanol. One hour after the administration of the ethanol the animals are killed, their stomachs are investigated for the presence of lesions and the number and the total extent of such lesions are determined.

[3] = test system: citrated human plasma (aPTT, coagulation); assay: aPTT (activated partial thromboplastin time) Test; assay type: biochemical; conditions: concentration which leads to a coagulation time double the control value, 37° C.
Method: aPTT (activated partial thromboplastin time) Test (see Walenga et al., CRC Critical Reviews in Laboratory Sciences 22 (4) 361-389 (1986)): 100 μl of citrated human plasma, which contains various concentrations of test compound, is mixed at 37° C. for 8 minutes with 100μ of Activated Thrombofax (ellagic acid as contact activator and bovine cephalin as platelet lipid substitute). 100 μl of pre-warmed 25 mM calcium chloride solution are then added and the coagultion time is measured in a Fibrometer Coagulation Timer.
as §1

[4] = test system: Swiss 3T3 mouse fibroblastoid cells; assay: anti-proliferative activity, Swiss 3T3 cells; assay type: cell-based; conditions: net proliferation, cells collected on the 4th day, 10% calf serum
Method: (§2) Cells of different origin (Swiss 3T3 mouse fibroblastoid cells, HSMC: human smooth muscle cells and endothelial cells, both isolated from human umbilical cord veins) in RPMI 1640 medium containing 10% calf serum (Swiss 3T3 cells), 15% fetal calf serum (HSMC) or 15% fetal calf serum plus 300 μg/ml of endothelial cell growth supplement (endothelial cells) were cultivated at 37° C. in water-saturated air/5% Co2. Confluent cultures were then washed once with HBSS, removed with 0.05% trypsin/0.02%EDTA and collected by centrifugation. The cells were applied to cell culture plates with a density of 5000 cells/culture and the test compound was added one hour later. The cells were then incubated at 37° C. in air/5% CO2 and collected on the 4th day (Swiss 3T3) and on the 7th day (HSMC and endothelial cells). In order to determine th number of cells, these were washed once with HBSS and adhering cells were incubated for 10 minutes at 37° C. with 0.5 ml of trypsin/EDTA solution for separation. 0.5 ml of formol solution (0.5% paraformaldehyde, 0.145M NaCl, 1.3 mM EDTA) was added to each culture in order to fix the cells. […] The number of cells was determined with a Coulter counter. The inhibitory action by the test compounds was determined as follows: [formula] with the net proliferation being the number of cells at the end of the test minus the number of cells on day 1 (=24 hour after inoculation). […]

[5] = test system: HSMC: human smooth muscle cells; assay: anti-proliferative activity, human smooth muscle cells; assay type: cell-based; conditions: net proliferation, cells collected on the 7th day, 15% fetal calf serum
Method: as §2

[6] = test system: Factor Xa; assay: Inhibition of Factor Xa in the Chromogenic Substrate Assay; assay type: biochemical; conditions: Factor Xa 2.8 nkat/ml, Bz-CO-Ile-Glu-Arg-NH.pNA
[7] = test system: mouse; assay: acute toxicity determination in the mouse; assay type: in vivo
Method: In an acute toxicity determination in the mouse the compound of Example 1 was still not lethal after the intravenous application of 500 mg/kg or after the subcutaneous application of 4000 mg/kg.

[8] = test system: thrombin (IIa); assay: Inhibition of Thrombin in the Chromogenic Substrate Assay; assay type: biochemical; conditions: amidolytic activity of thrombin reduced by 50% vs plasma control; anti-thrombin III, pH 8.4
Method: Inhibition of Thrombin or Factor Xa in the Chromogenic Substrate Assay (Teien et al., Thrombosis Research 10, 399-410 (1977)): The determination was effected in a Cobas-Bio centrifugal automatic spectrophotometer. The buffer solution used consisted of 50 mM Tris buffer, 180 mM NaCl, 7.5 mM EDTA Na2, 1% PEG 6000 (a polyethylene glycol of mol. weight 6000) and 0.02% Tween 80 (a polyoxyethylene sorbitanmonooleate), pH 8.4. The test solution consisted of 50 μl of buffer, 30 μl of anti-thrombin III (1 U/ml), and 20 μl of plasma which contained various concentrations of test compounds. 30 μl of sample solution and 20 μl of water with 180 μl of thrombin were added to the test cuvette in the automatic analyzer. After incubation at 37° C. for 240 seconds 60 μl of the p-nitranilide, H-D-Phe-Pip-Arg-NH.pNA, (0.75 mM in water) and 20 μl of water were added. The liberation of pNA (p-nitroaniline) was followed during 60 seconds at 405 nm in 10 second intervals in comparison to water as the blank. The inhibitory activity is given as the IC50 which is the concentration [μg/ml] at which the amidolytic activity of thrombin is reduced by 50% in comparison to the plasma control value.

With “trestatin A sulfate sodium salt [Example 1]” the “Coagulation inhibition IC50, Xa” value [1] was greater than 30 µg/mL, the “reduction of the number of lesions” value [2] was 28% and the “Coagulation inhibition IC50, aPTT” value [3] was 7 µg/mL. The “IC50 Swiss 3T3” value [4] was 30 µg/mL, the “IC50 HSCM” value [5] was 20 µg/mL and the “Chromogenic Substrate (amidolytic activity) IC50, Xa” value [6] was 550 µg/mL. For the same substance, the “lethal dose (not lethal after), intravenous” value ([7]; intravenous) was greater than 500 mg/kg, the “lethal dose (not lethal after), subcutaneous” value ([7]; subcutaneous) was greater than 4000 mg/kg and the “Chromogenic Substrate (amidolytic activity) IC50, IIa” value [8] was greater than 1000 µg/mL.
In the case of Heparin [reference compound], the “Coagulation inhibition IC50, Xa” value [1] is reported as 0.6 µg/mL, the “Coagulation inhibition IC50, aPTT” value [3] is reported as 1.2 µg/mL and the “IC50 Swiss 3T3” value [4] is reported as 35 µg/mL. For the same substance, the “IC50 HSCM” value [5] was 45 µg/mL, the “Chromogenic Substrate (amidolytic activity) IC50, Xa” value [6] was 2.7 µg/mL and the “Chromogenic Substrate (amidolytic activity) IC50, IIa” value [8] was 1.9 µg/mL.
